Source: US20230144436A1, “MUSCLE TARGETING COMPLEXES AND USES THEREOF FOR TREATING MYOTONIC DYSTROPHY” (Dyne Therapeutics, Inc., priority 2020, published 2023)

Tested on: DMPK
Assay: DMPK knockdown by transfected antisense oligonucleotides in DM1 C15 myotubes at 0.5 nM and 50 nM
Format: cell-based
Conditions: 72 hours; for Normalized DMPK Remaining: relative to vehicle control = 1.00
Procedure: Two hundred and thirty-six oligonucleotides for targeting DMPK were generated using in silico analysis. Each individual oligonucleotide was evaluated for their ability to target DMPK in cellulo at two doses—0.5 nM (low dose) and 50 nM (high dose).
Briefly, DM1 C15 immortalized myoblasts were cultured in T-75 flasks until near confluency (˜80% confluent). Myoblasts were then disrupted with trypsin and seeded into 96-well microplates at a density of 50,000 cells/well. Cells were allowed to recover overnight before the growth media was washed out and replaced with a no-serum media to induce differentiation into myotubes. Differentiation proceeded for seven days prior to treatment with DMPK-targeting oligonucleotides.
On day seven following induction of differentiation, DM1 C15 myotubes were transfected with an individual oligonucleotide using 0.3 μL of Lipofectamine MessengerMax per well. All oligonucleotides were tested at both 0.5 nM and 50 nM final concentrations in biological triplicates. After treatment with oligonucleotides, cells were incubated for 72 hours prior to being harvested for total RNA. cDNA was synthesized from the total RNA extracts and qPCR was performed to determine expression levels of DMPK in technical quadruplicate. All qPCR data were analyzed using a traditional […] method and were normalized to a plate-based negative control that comprised cells treated with vehicle control (0.3 μL/well Lipofectamine MessengerMax without any oligonucleotide). Results from these experiments are shown in Table 10. ‘Normalized DMPK Remaining’ for each antisense oligonucleotide in Table 10 refers to the expression level of DMPK in cell treated with said antisense oligonucleotide relative to the negative control that comprised cells treated with vehicle control (wherein the expression level of the negative control has been normalized to equal 1.00)

[1] = 0.5 nM oligonucleotide, qPCR, relative to vehicle control
[2] = 50 nM oligonucleotide, qPCR, relative to vehicle control

Substance	Percent DMPK Reduction [1]	Normalized DMPK Remaining (0.5 nM oligonucleotide, qPCR)	Percent DMPK Reduction [2]	Normalized DMPK Remaining (50 nM oligonucleotide, qPCR)	Percent DMPK Reduction (0.5 nM oligonucleotide)	Normalized DMPK Remaining (0.5 nM oligonucleotide)	Percent DMPK Reduction (50 nM oligonucleotide)	Normalized DMPK Remaining (50 nM oligonucleotide)
264 (AGGAUGUUGUCGGGUUUGAU; chemistry not given here) [compound 264]	24.19%	0.76	39.48%	0.61				
467 (AGCUCCCGCAGCGUCACCUC; chemistry not given here) [compound 467]					13.72%	0.86	80.40%	0.20
442 (AUGUUGUCGGGUUUGAUGUC; chemistry not given here) [compound 442]					16.93%	0.83	52.83%	0.47
456 (CCUCAGCCUGGCCGAAAGAA; chemistry not given here) [compound 456]					16.83%	0.83	63.99%	0.36
465 (GCAUCCAAAACGUGGAUUGG; chemistry not given here) [compound 465]					2.54%	0.97	72.69%	0.27
425 (ACCAGGUACAGGUAGUUCUC; chemistry not given here) [compound 425]					16.09%	0.84	76.96%	0.23
368 (CAGCAGUGUCAGCAGGUCCC; chemistry not given here) [compound 368]	25.67%	0.74	51.97%	0.48				
455 (UCCAGUUCCAUGGGUGUGGG; chemistry not given here) [compound 455]					15.66%	0.84	78.48%	0.22
382 (AUGUCCCUGUGCACGUAGCC; chemistry not given here) [compound 382]					16.78%	0.83	49.29%	0.51
428 (UUGAUGUCCCUGUGCACGU; chemistry not given here) [compound 428]					6.92%	0.93	43.07%	0.57
326 (CAGCGCCCACCAGUCACACU; chemistry not given here) [compound 326]	37.28%	0.63	64.93%	0.35				
281 (ACAGCGGUCCAGCAGGAUGU; chemistry not given here) [compound 281]	19.94%	0.80	55.14%	0.45				
287 (GCCAUCUCGGCCGGAAUCCG; chemistry not given here) [compound 287]	18.56%	0.81	86.39%	0.14				
358 (GUGUCCGGAAGUCGCCUGCU; chemistry not given here) [compound 358]	22.99%	0.77	73.65%	0.26				
394 (GAGCCUCUGCCUCGCGUAGU; chemistry not given here) [compound 394]					18.77%	0.81	77.78%	0.22
464 (UCCUUGUAGUGGACGAUCUU; chemistry not given here) [compound 464]					12.96%	0.87	84.87%	0.15
